Measured values as given in ChEMBL document CHEMBL3507680, “University of Dundee, Gates Library screen for HepG2 cell viability”.

Assay: Human HepG2 cell viability assay in 384 well format
Format: toxicity, cell-based
Design: dose 125 nL, time 70.5 hour; cytotoxicity at 70.5 h: concentration not given beside the values
Details: HepG2 cells, read-out: Inhibition

Row | Compound | cytotoxicity at 70.5 h
1 | COc1cccc(CNC(=O)CCNS(=O)(=O)c2ccc(C)cc2)c1 | -3.42%
2 | COCCNC(=O)c1ccoc1CN1c2ccccc2CC1C (stereo not given) | -6.26%
3 | COc1cccc(CN(C)C(=O)CCC(=O)c2ccccc2)c1OC | -9.57%
4 | CCN(C)C(=O)CCC(=O)c1cccs1 | -7.69%
5 | NC(=O)CSc1ccccc1NC(=O)C1CCCC1 | -5.87%
6 | N#Cc1ncn(CCC(=O)Nc2cccc(Cl)c2)n1 | -8.53%
7 | Cc1cnc(C(=O)N2CCN(Cc3csc(C)n3)CC2)cn1 | -6.71%
8 | CCS(=O)(=O)CCN1CCN(C(C)c2cccnc2)CC1 (stereo not given) | 19.9%
9 | O=C(CCCc1ccccn1)N1CCSC2(CCCCC2)C1 | 18.8%
10 | Cc1n[nH]c(SCC(=O)NC(c2ccccn2)C(C)C)n1 (stereo not given) | -0.841%
11 | O=C(COCC1CC1)N1CCSCC1 | 2.26%
12 | Cc1ccc(CNC(=O)CNCC2CCN(CCO)CC2)s1 | -1.79%
13 | COc1ncccc1C(=O)N1CCCC1c1nc(-c2ccccc2)n[nH]1 (stereo not given) | -0.047%
14 | Cc1cc(C2CCCN2C(=O)CN(C)Cc2ccccc2)no1 (stereo not given) | -5.16%
15 | CC(C)(O)CN1CCN(C(=O)COC2CCCC2)CC1 | -2.37%
16 | O=C(c1ccncc1F)N1CCCC1c1nc(-c2ccccc2)n[nH]1 (stereo not given) | -3.44%
17 | Cc1cncc(C(=O)N2CCOc3nc(C)ccc32)c1 | -7.26%
18 | Cc1cnn(C2CN(CC(=O)N(C)Cc3ccc(C)o3)C2)c1 | 39.8%
19 | CC(C)NC(=O)CN1CCSC2(CCCCC2)C1 | 18.3%
20 | CC(C)(C)OC(=O)N1CC(CC(=O)NCc2ccsc2)C1 | 7.8%

Row | Compound | cytotoxicity at 70.5 h
21 | Cc1cc(CNC(=O)CN2CCN(C(=O)OC(C)(C)C)CC2)ccc1F | 13.3%
22 | CC(=O)N(C)c1nc(CN2CCN(Cc3nccn3C)CC2)cs1 | 10.2%
23 | Cc1cn2nc(N3CCCC3C(=O)N3CCSCC3)sc2n1 (stereo not given) | -8.52%
24 | Cc1cc(CNC(=O)Nc2cc(F)cc(N3CCCC3)c2)no1 | -13.7%
25 | O=C(Cc1ccccc1Cl)Nc1ccn(CCN2CCOCC2)n1 | -12.9%
26 | CSc1ccsc1C(=O)NS(=O)(=O)c1cccc(C#N)c1 | -13.1%
27 | O=C1CCc2cc(S(=O)(=O)NC(=O)c3ccc4c(c3)OCO4)ccc2N1 | -15.2%
28 | Cn1c(CN2CCN(CC3CCCO3)CC2)nc2ccccc21 (stereo not given) | -9.16%
29 | CCc1cc(CNC(=O)NCc2ccc(N3CCCCC3)cc2)on1 | -7.79%
30 | Cc1cnn(C2CN(CC(=O)N(C)Cc3cccs3)C2)c1 | -11.5%
31 | Clc1ccc2cccnc2c1CN1CCn2c(nnc2C2CC2)C1 | -13.3%
32 | Nc1nc(CN2CCN(c3nccs3)CC2)cs1 | -5.16%
33 | Fc1cccc(Cl)c1CN1CCn2c(nnc2C2CC2)C1 | -10.3%
34 | CC(=O)N1CCCc2ccc(S(=O)(=O)N3CCCCC3C)cc21 (stereo not given) | -3.92%
35 | CCOc1cccc(CCNC(=O)Cc2ccn[nH]2)n1 | -7.14%
36 | COCc1ccccc1C(=O)NS(=O)(=O)c1ccc2c(c1)CCC(=O)N2 | -9.29%
37 | Cc1nnc(N2CCCC2)c(C(N)=O)c1C | -6.33%
38 | CC(C)(C)OC(=O)N1CC(CC(=O)NCc2ccnc(C3CC3)c2)C1 | -8.99%
39 | Cc1nnc2n1CCN(Cc1c(Cl)ccc3cccnc13)C2 | 26.2%
40 | CN(Cc1ccc([S+](C)[O-])cc1)c1ccc(C(F)(F)F)cn1 (stereo not given) | -4.29%

Row | Compound | cytotoxicity at 70.5 h
41 | CN(C(=O)c1cccn1C)C1CCC(NC(=O)OC(C)(C)C)CC1 (stereo not given) | -9.69%
42 | O=C(COCc1ccccc1)Nc1ccccn1 | 0.318%
43 | Cc1ccc2c(c1)C(NCc1ncnn1C)CC2 (stereo not given) | -5.24%
44 | Cn1cnnc1-c1cncc(NCc2cccc3c2OC(C)(C)C3)c1 | 8.22%
45 | CCCC(C)(C)NC(=O)c1cnc(C)s1 | 2.45%
46 | CCc1ncc(C(=O)NC(C)(C)CC)s1 | -1.24%
47 | N#Cc1ccccc1CNC(C(=O)N1CCOCC1)c1ccccc1 (stereo not given) | -1.56%
48 | Cc1n[nH]cc1CNC(C(=O)N1CCCCC1)c1ccccc1 (stereo not given) | 3.13%
49 | O=C(C(NCc1cccc(F)c1F)c1ccccc1)N1CCOCC1 (stereo not given) | -1.89%
50 | N#Cc1ccc(N2CCN(c3ncccn3)CC2)c(C(F)(F)F)c1 | 8.58%
51 | COCCSc1ccc(C(C)NC(=O)Nc2cccnc2)cc1 (stereo not given) | -4.37%
52 | c1cnn(CC2CCCN2c2ncnc3c2CCC3)c1 (stereo not given) | 4.07%
53 | COc1ccc(S(=O)(=O)N2CCn3nc(C)nc3C2)cc1C | -5.13%
54 | COc1cccc(-c2csc(Cn3ccc(=O)[nH]c3=O)n2)c1 | 19.5%
55 | COc1ccc(C)cc1-c1csc(Cn2ccc(=O)[nH]c2=O)n1 | 2.92%
56 | CCn1c(C)cc(-c2csc(Cn3ccc(=O)[nH]c3=O)n2)c1C | -4.42%
57 | N#Cc1c[nH]c(C(=O)N(Cc2ccc(O)cc2)CC2CC2)c1 | -2.25%
58 | NC(=O)c1ccc(C(=O)N(Cc2ccc(O)cc2)CC2CC2)cc1 | 6.44%
59 | O=c1ccn(Cc2nc(-c3ccccc3F)cs2)c(=O)[nH]1 | 0.45%
60 | NC(=O)NC(=O)CCn1ccc(-c2ccc(F)cc2)n1 | -1.22%
